The results in this text go back to paper PMC5361215 (Scientific Reports, 2017).

The star is where a group is joined. X1 = CC(C)CCC[C@@H](C)[C@H]1CC[C@H]2[C@@H]3CC=C4C[C@@H](OC(=O)CCOCCOCCOCCOCCOCCOCCOCCOCCOCCOCCOCCOCCOCCOCCOCCOCCOCCOCCOCCOCCOCCOCCOCCOCCNC(=O)C*)CC[C@]4(C)[C@H]3CC[C@]12C; X2 = CC(C)CCC[C@@H](C)[C@H]1CC[C@H]2[C@@H]3CC=C4C[C@@H](OC(=O)CCOCCOCCOCCOCCNC(=O)C*)CC[C@]4(C)[C@H]3CC[C@]12C; X3 = CC(C)CCC[C@@H](C)[C@H]1CC[C@H]2[C@@H]3CC=C4C[C@@H](OC(=O)C*)CC[C@]4(C)[C@H]3CC[C@]12C

The subject of series [1] is HPIV3. The following applies: 24 h.
A further series deals with Vero cells. Conditions: for Cytotoxicity in monolayer culture CC50: 24 h.
The subject of series [2] is HPIV3. The format is cell-based.
The subject of another series is NiV G/F mediated fusion. In kind it is cell-based.
Series [3] has as its target uncleaved HPIV3 F (K108G) (Human parainfluenza 3 virus, UniProt P06828, K108G). The format is cell-based.
For series [4] the following is noted: hamster, in vivo, ip, 2 mg/kg.
The nature of a further series: in vivo. Conditions: female, Syrian golden, hamster, ip, 2 mg/kg.
The next series has as its target RBCs. In kind it is binding, human. Conditions: pH 7.4; read-out: Apparent Kd towards RBCs.
The format of series [5] is binding. The following applies: read-out: Kd, dissociation constant for POPC monolayer.
The format of series [6] is physicochemical. Conditions: pH 7.4.
The next series deals with NiV. Also noted: species or system Syrian golden hamsters (Mesocricetus auratus). The following applies: hamster, in vivo, ip, 2 mg/kg.
Series [7] has as its system HPIV3. In kind it is in vivo, cotton rats. Conditions: n = 4.

Sequence of uncleaved HPIV3 F (K108G) (P06828 19-539 K108G): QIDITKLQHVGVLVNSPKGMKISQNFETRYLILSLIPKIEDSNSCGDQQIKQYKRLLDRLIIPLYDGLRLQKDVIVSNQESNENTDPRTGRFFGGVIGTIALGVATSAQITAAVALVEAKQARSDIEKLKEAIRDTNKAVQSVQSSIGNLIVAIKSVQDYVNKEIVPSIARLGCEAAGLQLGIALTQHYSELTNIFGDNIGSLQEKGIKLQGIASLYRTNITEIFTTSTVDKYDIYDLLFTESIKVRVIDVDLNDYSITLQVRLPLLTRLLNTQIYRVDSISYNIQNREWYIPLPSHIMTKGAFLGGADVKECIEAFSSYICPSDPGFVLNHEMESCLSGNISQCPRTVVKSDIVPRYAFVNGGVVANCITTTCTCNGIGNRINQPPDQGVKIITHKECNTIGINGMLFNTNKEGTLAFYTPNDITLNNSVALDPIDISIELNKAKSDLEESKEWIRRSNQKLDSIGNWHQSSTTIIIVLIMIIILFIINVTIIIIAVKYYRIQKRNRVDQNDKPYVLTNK

As to `CC[C@H](C)[C@H](NC(=O)[C@H](C)NC(=O)[C@H](CC(N)=O)NC(=O)CNC(=O)[C@H](CC(C)C)NC(=O)[C@H](CC(N)=O)NC(=O)[C@@H](NC(=O)CNC(=O)[C@@H](NC(=O)[C@H](CC(=O)O)NC(=O)[C@H](CC(C)C)NC(=O)[C@H](CCCNC(=N)N)NC(=O)[C@H](CCC(=O)O)NC(=O)[C@H](CC(C)C)NC(=O)[C@H](CO)NC(=O)[C@@H](NC(=O)[C@@H]1CCCN1C(=O)[C@@H]1CCCN1C(C)=O)[C@@H](C)CC)C(C)C)[C@@H](C)O)C(=O)N[C@@H](C)C(=O)N[C@@H](CCCCN)C(=O)N[C@@H](CC(C)C)C(=O)N[C@@H](CCC(=O)O)C(=O)N[C@@H](CC(=O)O)C(=O)N[C@@H](C)C(=O)N[C@@H](CCCCN)C(=O)N[C@@H](CCC(=O)O)C(=O)N[C@@H](CC(C)C)C(=O)N[C@@H](CC(C)C)C(=O)N[C@@H](CCC(=O)O)C(=O)N[C@@H](CO)C(=O)N[C@@H](CO)C(=O)N[C@@H](CC(=O)O)C(=O)N[C@@H](CCC(N)=O)C(=O)N[C@H](C(=O)N[C@@H](CC(C)C)C(=O)N[C@@H](CCCNC(=N)N)C(=O)NCC(=O)N[C@@H](CO)C(=O)NCC(=O)N[C@@H](CO)C(=O)NCC(=O)N[C@@H](CSCC(=O)NCCOCCOCCOCCOCCOCCOCCOCCOCCOCCOCCOCCOCCOCCOCCOCCOCCOCCOCCOCCOCCOCCOCCOCCOCCC(=O)O[C@H]1CC[C@@]2(C)C(=CC[C@H]3[C@@H]4CC[C@H]([C@H](C)CCCC(C)C)[C@@]4(C)CC[C@@H]32)C1)C(N)=O)[C@@H](C)CC` [HRCMV PEG 24 Chol, reference compound], in the series with HPIV3 [1], the IC50 is > 2000 nM and the IC90 is > 2000 nM. The “Cytotoxicity in monolayer culture CC50” value with Vero cells is given as 2,000 nM.
Turning to “Ac-C(X2)GSGSGVALDPIDISIVLNKAKSDLEESKEWIRRSNGKLDSI-NH2 [Chol-PEG4-VG]”, in the series on HPIV3 [2], the “Inhibition of HPIV3 infection in HAE at 1 μM” value (shortened to “Inhibition … at 1 μM”) is on record as “only partial inhibition” and the “Inhibition of HPIV3 infection in HAE at 10 μM” value is “no virus was produced at any time after infection”. Besides, the 90% effect level in the series with HPIV3 [1] (IC90) was put at 0.1 ± 0.0001 nM. For the same compound, in the series on Vero cells, the “Cytotoxicity in monolayer culture CC50” value is on record as >10,000 nM.
On to “Ac-C(X3)GSGSGVALDPIDISIVLNKAKSDLEESKEWIRRSNGKLDSI-NH2 [Chol-VG]”, for which, in the series with HPIV3 [1], the concentration for half-maximal inhibition (IC50) worked out at 0.06 ± 0.035 nM and the IC90 amounted to 1.7 ± 0.42 nM. Moreover, the “Cytotoxicity in monolayer culture CC50” value in the series with Vero cells was 9,000 nM. The “IC50 against NiV fusion” value with NiV G/F mediated fusion is “too little effect to determine an IC50”. Besides, in series [3], the “RBCs free (released)” value amounted to 80% and the “RBCs reversibly bound (HN-receptor engagement only)” value was found to be 20%.
In the case of “Ac-VALDPIDISIVLNKAKSDLEESKEWIRRSNGKLDSIGSGSGC(X1)-NH2 [VG-PEG24-Chol]”, in series [4], the “Peptide in brain (immuno-histofluorescence)” value is on record as “present in brain parenchyma” and the Peptide in urine result is recorded as “No peptide was detected in the urine”. The compound also gave a Cmax in “in vivo” of 120 nM. Besides, the Kd at RBCs was found to be 330 nM. Further, in series [5], the Kd came out at 77.6 ± 21.7 nM. Besides, in the series on HPIV3 [2], the “Inhibition … at 1 μM” value was “complete inhibition of infection” and the “Inhibition of HPIV3 infection in HAE at 10 μM” value is on record as “no virus was produced at any time after infection”. In the series with HPIV3 [1], inhibition was half-maximal at 0.007 ± 0.007 nM (IC50) and the concentration for an effect of 90% (IC90) was determined as 0.1 ± 0.0003 nM. Moreover, the “Protease degradation, temperature not given” value with trypsin is on record as “increased degradation significantly”. In addition, the “Blue-shift of ANS emission on titration with peptide” value (from here on “Blue-shift of ANS emission”) in series [6] worked out at 58 nm. Also, the “Survival of hamsters given lethal NiV” value in the series with NiV is recorded as “significantly improved the survival”. The “Viral load in cotton rat lungs” value in the series with HPIV3 [7] is given as “significantly decreased the viral load”. Further, in the series on Vero cells, the “Concentration at which toxicity on cells appears” value came to 1000 nM and the “Cytotoxicity in monolayer culture CC50” value is 1,300 nM. Besides, in series [3], the “RBCs irreversibly bound (peptide bridging)” value is on record as “looks similar to VG-Chol”.
On to “Ac-VALDPIDISIVLNKAKSDLEESKEWIRRSNGKLDSIGSGSGC(X2)-NH2 [VG-PEG4-Chol]”, for which, on RBCs, the Kd came to 440 nM. In series [5], the Kd came out at 67.9 ± 14.2 nM. Also, in the series with HPIV3 [2], the “Decrease of HPIV3 viral titer in HAE at day 2 after infection” value is recorded as “approximately two logs”, the “Decrease of HPIV3 viral titer in HAE at day 5” value was “approximately one log” and the “Inhibition … at 1 μM” value is given as “only partial inhibition”. In the series with HPIV3 [1], this compound came in with an IC50 of 0.03 ± 0.04 nM and a 90% effect concentration (IC90) of 0.7 ± 0.007 nM. In addition, the “Blue-shift of ANS emission” value in series [6] amounted to 63 nm. Also, the “Cytotoxicity in monolayer culture CC50” value with Vero cells was 4,500 nM. Also, the “RBCs irreversibly bound (peptide bridging)” value in [3] is “more than 50%”.
On to “Ac-VALDPIDISIVLNKAKSDLEESKEWIRRSNGKLDSIGSGSGC(X3)-NH2 [VG-Chol]”, for which the Kd at RBCs came to 540 nM. For the same compound, the Kd in [5] is 62.3 ± 20.3 nM. Further, in the series on HPIV3 [1], inhibition was half-maximal at 0.015 nM (IC50) and the IC90 came out at 0.7 ± 0.26 nM. Also, the “Blue-shift of ANS emission” value in series [6] turned out to be 67 nm. Also, the “Cytotoxicity in monolayer culture CC50” value in the series with Vero cells was 10,000 nM.

As a reminder, the IC50 is the concentration needed to halve the response being measured. What is called IC90 is the point of the concentration-response curve where the effect stands at 90%. As a reminder, the Cmax is the maximum level reached in the sampled fluid or tissue.
